Source: US20230404887A1, “COMPOSITIONS TO LIMIT OR ELIMINATE THE PERCEPTION OF SWEAT MALODOR” (Firmenich SA, priority 2020, published 2023)

Key:
[1] = Expert perfumer evaluation of malodor reduction, dynamic olfactometer, against 3M2HA; design: species or system human; details: for EFFECTIVE CONCENTRATION: MO 3M2HA held fixed at mid-intensity (0.5), headspace concentration providing an effective level; for EXPERT RATING: MO 3M2HA held fixed at mid-intensity (0.5 on scale 0-1), rating of degree of malodor reduction at the effective concentration
Experimental: (§1) The effectiveness of perfuming materials in compositions to reduce the perception of, for example, axillary sweat malodors, was evaluated by an expert perfumer by 1) selecting target axillary malodor components, 2) delivering target malodor components and candidate malodor reducing materials to the nose of an expert perfumer at carefully controlled concentrations, 3) having the expert perfumer identify the concentration at which malodor reduction was obtained, and 4) rating the degree of reduction achieved at the concentration identified in step 3.
(§2) In this method, a dynamic multi-channel olfactometer was used to precisely deliver known gas phase concentrations of the test materials, using forced evaporation, into a stream of air emanating from a smelling port. The appropriate concentration of the malodor component was established prior to its being mixed with the candidate malodor reducing substance. The concentration was set at a concentration sufficient to produce an intensity of 0.5 (mid-intensity) on a scale of 0-1. The expert perfumer then dynamically adjusted the concentration of the candidate malodor reducing substance to determine the effective concentration, while maintaining a fixed concentration of the malodor component. Once the appropriate concentration had been determined, the expert perfumer evaluated the perception of the mixtures repeatedly over a period of several minutes, taking breaks in between sniffs to avoid adaptation to the components being tested, before providing a rating.
(§3) Tests were performed in a forced-evaporation, dynamic olfactometer, with malodor component concentrations held fixed at a mid-intensity. Ratings of effectiveness were based in the following scale: −2 (significant increase in malodor), −1 (slight increase in malodor), 0 (no effect), 1 (slight malodor reduction), 2 (good malodor reduction), 3 (complete malodor reduction). The malodor (MO) component abbreviations are 3H3MHA (3-methyl-3-hydroxyhexanoic acid), 3M2HA (3-methyl-2-hexenoic acid), 3M3SH (3-methyl-3-sulphanylhexanol).

[2] = Expert perfumer evaluation of malodor reduction, dynamic olfactometer, against 3M3SH; design: species or system human; details: for EFFECTIVE CONCENTRATION: MO 3M3SH held fixed at mid-intensity (0.5), headspace concentration providing an effective level; for EXPERT RATING: MO 3M3SH held fixed at mid-intensity (0.5 on scale 0-1), rating of degree of malodor reduction at the effective concentration
Experimental: as §1, §2, §3

Row | Molecule | EFFECTIVE CONCENTRATION [1] [micrograms/L AIR] | EXPERT RATING [1] | EFFECTIVE CONCENTRATION [2] [micrograms/L AIR] | EXPERT RATING [2]
1 | CC(=O)/C=C/C1=C(C)CCCC1(C)C | 5.83E−02 | 3 | 1.17E−01 | 3
2 | 3-(2/4-ETHYLPHENYL)-2,2-DIMETHYLPROPANAL | 3.67E−01 | 3 | 7.33E−01 | 2
3 | CCCCCC1(C)CCC(C)(C)C1=O (racemic) | 1.22E+00 | 2 | – | –
4 | CCC(C)CCCC(C)(C)O (racemic) | 5.40E+00 | 2 | 1.08E+01 | 2
5 | C=CC(C)CCCC(C)(C)O (racemic) | 4.33E+00 | 2 | – | –
6 | CCC(C)(O)CCCC(C)C (racemic) | 9.27E+00 | 2 | – | –
7 | CC(C)=C[C@H]1C[C@@H](C)CCO1 (racemic) [(2RS,4SR)-4-METHYL-2-(2-METHYL-1-PROPEN-1-YL)TETRAHYDRO-2H-PYRAN] | 6.83E−01 | 2 | 6.83E−01 | 1
8 | C[C@H]1CCO[C@@H](c2ccccc2)C1 (racemic) [(2RS,4SR)-4-METHYL-2-PHENYLTETRAHYDRO-2H-PYRAN] | – | – | 2.67E−01 | 3
9 | CC1(C)CCC[C@]2(C)[C@H]3CCO[C@]3(C)CC[C@@H]12 (racemic) [(3aRS,5aSR,9aSR,9bRS)-3a,6,6,9a-TETRAMETHYLDODECAHYDRONAPHTHO[2,1-b]FURAN] | 4.33E−03 | 3 | 2.17E−03 | 3
10 | CC(=O)OC(C)(C)C1CC=C(C)CC1 (racemic) [(+−)-2-(4-METHYL-3-CYCLOHEXEN-1-YL)-2-PROPANYL ACETATE] | 1.08E+00 | 3 | 1.08E+00 | 3
11 | CCCCCCCCCC(C)C=O (racemic) [(+−)-2-METHYLUNDECANAL] | 2.33E−03 | 2 | – | –
12 | CCC(C)c1ccc2ncccc2c1 (racemic) [(+−)-6-SEC-BUTYLQUINOLINE] | – | – | 1.83E−02 | 3
13 | CC1C/C=C/CCCCCCCCCC(=O)C1 (racemic) [(+−)-(5E)-3-METHYL-5-CYCLOPENTADECEN-1-ONE] | 2.33E−01 | 2 | 5.83E−01 | 1
14 | C=CC(C)(CC/C=C(\C)CC)OC(C)=O (racemic) [(+−)-(6E)-3,7-dimethyl-1,6-nonadien-3-yl acetate] | – | – | 6.67E+00 | 2
15 | CC/C=C(\C)C(O)CCCCC (racemic) [(+−)-(E)-4-METHYL-3-DECEN-5-OL] | 2.13E−01 | 3 | 4.27E−01 | 3
16 | O=c1ccc2ccccc2o1 [2-CHROMENONE] | 9.83E−03 | 3 | 7.87E−02 | 3
17 | CCc1occc(=O)c1O [2-ETHYL-3-HYDROXY-4(4H)-PYRANONE] | 1.83E−02 | 3 | 1.83E−02 | 2

Row | Molecule | EFFECTIVE CONCENTRATION [1] [micrograms/L AIR] | EXPERT RATING [1] | EFFECTIVE CONCENTRATION [2] [micrograms/L AIR] | EXPERT RATING [2]
18 | COc1ccc2ccccc2c1 [2-METHOXYNAPHTHALENE] | 1.25E−02 | 3 | 5.00E−02 | 3
19 | OCCc1ccccc1 [2-PHENYLETHANOL] | 5.42E−01 | 3 | 1.08E+00 | 2
20 | O=CCCc1ccccc1 [3-PHENYLPROPANAL] | 2.60E+00 | 3 | 2.60E+00 | 3
21 | CC(=O)CCc1ccc(O)cc1 [4-(4-HYDROXYPHENYL)-2-BUTANONE] | 1.50E−04 | 3 | 6.00E−04 | 1
22 | COc1ccc(C=O)cc1 [4-METHOXYBENZALDEHYDE] | 6.83E−02 | 2 | – | –
23 | COc1ccc(COC(C)=O)cc1 [4-METHOXYBENZYL ACETATE] | 1.18E+00 | 3 | 2.37E+00 | 2
24 | CC(=O)CCc1ccccc1 [4-PHENYL-2-BUTANONE] | 7.50E−01 | 3 | 3.75E−01 | 2
25 | C=CCCCCCCCCC=O [10-UNDECENAL] | 9.50E−03 | 3 | 9.50E−02 | 2
26 | COC(Cc1ccccc1)OC [(2,2-DIMETHOXYETHYL)BENZENE] | 3.92E+00 | 3 | 3.92E+00 | 2
27 | OC/C=C/c1ccccc1 [(2E)-3-PHENYL-2-PROPEN-1-OL] | – | – | 6.50E−02 | 2
28 | CCCCCCC/C=C\CCC=O [(4Z)-4-DODECENAL] | 1.03E−04 | 2 | 2.07E−04 | 1
29 | O=C1CCCCCCC/C=C/CCCCCCO1 [(10E)-OXACYCLOHEPTADEC-10-EN-2-ONE] | 7.17E−02 | 2 | 2.87E−01 | 2
30 | C=CCOC(=O)CCCCCC [ALLYL HEPTANOATE] | 4.13E+00 | 3 | – | –
31 | C=CCOC(=O)CCCCC [ALLYL HEXANOATE] | 1.06E+00 | 3 | 2.12E+00 | 3
32 | CCCCCCCCCC=O [DECANAL] | 5.00E−01 | 3 | 2.50E−01 | 2
33 | CCOC(=O)CC1(C)OCCO1 [ETHYL 2-METHYL-1,3-DIOXOLANE-2-ACETATE] | 7.07E+00 | 2 | – | –
34 | CCCCCOC(=O)c1ccccc1O [PENTYL 2-HYDROXYBENZOATE] | – | – | 5.00E−01 | 3
